# Laboratory results from patent US20260055061A1, “HALOPHTHALIMIDE COMPOUNDS AND METHODS OF USE AGAINST TBI, INFLAMMATORY DISORDER, AUTOIMMUNE DISORDER, NEURODEGENERATIVE DISEASE OR VIRAL INFECTION” (The United States of America, as represented by the …, priority 2022, published 2026).
# Entries after “also recorded” stand apart in the source; their conditions may differ.
# Assays:
# [1] = system: LPS-induced nitrite in RAW 264.7 cells; assay: LPS-induced nitrite production in RAW 264.7 cells (Griess reagent / fluorometric kit); assay type: cell-based, mouse; conditions: for Nitrite, % Change versus Control (± s.e.m.): 10 uM; for nitrite level, % of vehicle control: percentage of vehicle control value (control = 100%), mean ± S.E.M., n = 3; for nitrite levels (in words): six-compound pomalidomide grouping, RAW cell assay, FIGS. 12-13; for nitrite inhibitory activity (comparison in words): tetrafluoro vs corresponding difluoro or stereoisomer
# Procedure: Nitrite ion detection in drug treated […] cell culture media: To measure the levels of nitrite ion NO2—) the Griess Reagent System (Promega, Madison, WI, Cat #G2930) was utilized. The protocol followed was that recommended by the manufacturer. In brief a NO2— ion standard curve was prepared in culture media of the same composition to that used for the cell culture study. The concentration range of the standard curve was from 1.5 µM to 100 µM. Equal volumes (50 μL) of standards and unknown samples were added to clear 96 well plates in duplicate. Then 50 μL of sulfanilamide solution was added to each well and the plate was covered and incubated in the dark for 10 min. After the incubation period 50 μL of N-1-napthylethylenediamine dihydrochloride solution was added to each well and the plate was incubated in dark for a further 10 min. After this incubation, the plate was read at 550 nm on a SPECTRAmax PLUS plate reader and the absorbances were used to generate a NO2— standard curve and the NO2— ion levels of the unknown samples are determined using SoftMax Pro V5, Molecular Devices.
# Most neurons are highly vulnerable to RNS and ROS. Nitric oxide (NO) is one of RNSs, which is very short lived and cannot be readily measured. However, nitrite is a stable end product of nitric oxide metabolism. Therefore, nitrite acts as a surrogate measure of NO. The Griess Reagent System (Promega Corporation, Madison, WI) can be applied to measure nitrite levels in culture media following the manufacturer's protocol, and this system was used in the present study as it is a more sensitive assay compared to quantifying actions on TNF-α by ELISA assay. […] This challenge induces high level of TNF-α protein accompanied by a robust generation of nitrite.
# (§1) Cells were propagated as described by ATCC guidelines.
# RAW 264.7 cells = assay: Cell viability of drug treated RAW 264.7 cells (CellTiter 96 AQueous One, MTS); conditions: for Viability, % Change versus Control (± s.e.m.): 10 uM; for Cell Viability % Δ: percentage of vehicle control value, mean ± S.E.M., n = 3
# TNF-α = assay: LPS-induced TNF-α production in RAW 264.7 cells (ELISA); assay type: cell-based, mouse; conditions: for TNF-a, % Change versus Control (± s.e.m.): 10 uM; for TNF-α % Δ: percentage of vehicle control value (control = 100%), mean ± S.E.M., n = 3
# Procedure: Enzyme-linked immunosorbent assay for TNF-α protein: Media TNF-α levels were measured by use of the Biolegend ELISA MAX Set Delux ELISA (#430904). The protocol used was that recommended by the manufacturer. In brief, a day prior to performing the assay, a 96 well plate was coated with a capture antibody directed against TNF-α. The following day the assay plate was washed and blocked with the kit blocking agent for 1 h while being mixed on a plate shaker at 200 rpm (all incubations were mixed at 200 rpm unless stated otherwise). A TNF-α protein standard curve was prepared in the assay diluent following the kit instructions and unknown media samples were likewise diluted in the same assay diluent. After blocking, the plate was washed and then both the standards and unknown media samples were added to the plate in duplicate. The standards and unknown samples were incubated for 2 h. After the incubation, the plate was washed and then the biotin labeled detection antibody was added to each well and incubated for a further 1 h. After this incubation, the avidin-HRP conjugate complex was added to each well and incubated for 30 min. The plate was washed and the chromogenic substrate 3,3′,5,5′-tetramethylbenzidine solution was added to each well. At this point the plate was covered and incubated in the dark for 15 min, with no mixing. After 15 min the chromogenic reaction was stopped by the addition of 2 N H2SO4 and the absorbance was read at 450 nm and for background subtractions at 570 nm, on a SPECTRAmax PLUS plate reader. The absorbances were used to generate a TNF-α a protein standard curve and the protein levels in the unknown samples were determined using SoftMax Pro V5, Molecular Devices.
# as §1
# [2] = LPS-activated RAW 264.7 cells (Table 9)
# [3] = 1 μM, LPS-challenged RAW 264.7 cells
# [4] = 10 μM, LPS-challenged RAW 264.7 cells
# [5] = 30 μM, LPS-challenged RAW 264.7 cells
compound,measurement,setting,value
"2-(2,6-dioxopiperidin-3-yl)-4-fluoro-7-nitroisoindoline-1,3-dione [Compound 23]","Nitrite, % Change versus Control (± s.e.m.)",[1]; LPS-activated RAW 264.7 cells,56.8 ± 2.2%
same,"Viability, % Change versus Control (± s.e.m.)",RAW 264.7 cells; LPS-activated RAW 264.7 cells,104.9 ± 2.1%
same,"TNF-a, % Change versus Control (± s.e.m.)",TNF-α; LPS-activated RAW 264.7 cells,86.0 ± 4.4%
"O=C1NC(=S)CCC1N1C(=O)c2c(F)ccc([N+](=O)[O-])c2C1=O (stereo not shown) [Compound 24, 4-fluoro-7-nitro-2-(2-oxo-6-thioxopiperidin-3-yl) isoindoline-1,3-dione]","Nitrite, % Change versus Control (± s.e.m.)",[1]; LPS-activated RAW 264.7 cells,4.7 ± 1.0%
same,"TNF-a, % Change versus Control (± s.e.m.)",TNF-α; LPS-activated RAW 264.7 cells,51.3 ± 3.8%
Nc1cccc2c1C(=O)N(C1CCC(=O)NC1=O)C2=O (stereo not shown),"Nitrite, % Change versus Control (± s.e.m.)",[1]; [2],91 ± 1.6 (N.S.) %
same,"Viability, % Change versus Control (± s.e.m.)",RAW 264.7 cells; [2],95 ± 1.2 (N.S.) %
same,"TNF-a, % Change versus Control (± s.e.m.)",TNF-α; [2],95 ± 4.8 (N.S.) %
"CC1(C)[C@@H]2CC[C@@]1(C)[C@@H](N1C(=O)c3c(F)ccc(F)c3C1=O)C2 [Compound 20, 4,7-Difluoro-2-((1R,2S,4R)-1,7,7-trimethylbicyclo[2.2.1]heptan-2-yl) isoindoline-1,3-dione]","nitrite level, % of vehicle control",[1]; [3],90 ± 2%
same,"nitrite level, % of vehicle control",[1]; [4],78 ± 3%
same,"nitrite level, % of vehicle control",[1]; [5],39 ± 5%
same,inhibition at 30 µM,"[1]; Mus musculus, RAW264.7, 30 μM, LPS-challenged RAW 264.7 cells, read-out: nitrite inhibitory activity",39%
same,Cell Viability % Δ,"RAW 264.7 cells; 1 μM, RAW 264.7 cells",101 ± 3%
same,Cell Viability % Δ,"RAW 264.7 cells; 10 μM, RAW 264.7 cells",98 ± 4%
same,cell viability,"RAW 264.7 cells; 30 μM, RAW 264.7 cells",96%
same,Cell Viability % Δ,"RAW 264.7 cells; 30 μM, RAW 264.7 cells",96 ± 6%
same,cytotoxicity (in words),"RAW 264.7 cells; RAW 264.7 cells, 1 to 30 μM",the smallest
same,TNF-α % Δ,TNF-α; [3],100 ± 2%
same,TNF-α % Δ,TNF-α; [4],98 ± 3%
same,anti-TNF-α activity,TNF-α; [5],76%
same,TNF-α % Δ,TNF-α; [5],76 ± 4%
"Nc1c(F)ccc2c1C(=S)N(C1CCC(=S)NC1=O)C2=O (stereo not shown) [Compound 32, 4-amino-5-fluoro-2-(2-oxo-6-thioxopiperidin-3-yl)-3-thioxoisoindolin-1-one]",nitrite levels (in words),[1],modest efficacy
"O=C1c2c(F)c(F)c(F)c(F)c2C(=O)N1C1CC2CCC1C2 (stereo not drawn) [Compound 15, 2-Exo-(bicyclo[2.2.1]heptan-2-yl)-4,5,6,7-tetrafluoroisoindoline-1,3-dione]",nitrite levels,[1]; [3],25-36%
same,"nitrite level, % of vehicle control",[1]; [3],25 ± 2%
same,nitrite inhibitory activity (comparison in words),[1]; 1 μM,more potent nitrite inhibitory activity; also recorded: slightly more potent than diastereomer 16
same,TNF-α level,TNF-α; [3],55-74%
same,TNF-α % Δ,TNF-α; [3],71 ± 2%
"O=C1c2c(F)ccc(F)c2C(=O)N1C1CC2CCC1C2 (stereo not drawn) [Compound 22, 2-Endo-(bicyclo[2.2.1]heptan-2-yl)-4,7-difluoroisoindoline-1,3-dione]","nitrite level, % of vehicle control",[1]; [3],103 ± 5%
same,"nitrite level, % of vehicle control",[1]; [4],104 ± 2%
same,"nitrite level, % of vehicle control",[1]; [5],50 ± 3%
same,TNF-α % Δ,TNF-α; [3],102 ± 5%
same,TNF-α % Δ,TNF-α; [4],87 ± 5%
"CC(C)Nc1ccc(F)c2c1C(=O)N(C1CCC(=S)NC1=O)C2=O (stereo not shown) [Compound 27, 4-fluoro-7-(isopropylamino)-2-(2-oxo-6-thioxopiperidin-3-yl) isoindoline-1,3-dione]","Nitrite, % Change versus Control (± s.e.m.)",[1]; LPS-activated RAW 264.7 cells,74.8 ± 1.2%
same,"Viability, % Change versus Control (± s.e.m.)",RAW 264.7 cells; LPS-activated RAW 264.7 cells,112.3 ± 1.7%
same,"TNF-a, % Change versus Control (± s.e.m.)",TNF-α; LPS-activated RAW 264.7 cells,94.4 ± 2.8%
"Nc1c(F)ccc2c1C(=O)N(C1CCC(=O)NC1=O)C2=O (stereo not shown) [Compound 31, 4-amino-2-(2,6-dioxopiperidin-3-yl)-5-fluoroisoindoline-1,3-dione]",nitrite levels (in words),[1],surpassed by counterparts 3′ and 26
"C[C@@H]1[C@@H](N2C(=O)c3c(F)c(F)c(F)c(F)c3C2=O)C[C@H]2C[C@@H]1C2(C)C [Compound 12, 4,5,6,7-Tetrafluoro-2-((1S,2S,3S,5R)-2,6,6-trimethylbicyclo[3.1.1]heptan-3-yl) isoindoline-1,3-d ione]","nitrite level, % of vehicle control",[1]; [3],24 ± 3%
same,nitrite inhibitory activity (comparison in words),[1]; 1 μM,more potent nitrite inhibitory activity
same,Cell Viability % Δ,"RAW 264.7 cells; 1 μM, RAW 264.7 cells",63 ± 4%
same,TNF-α % Δ,TNF-α; [3],56 ± 5%
